Measured values as given in patent US11697648B2, “Fused pyrimidine pyridinone compounds as JAK inhibitors” (THERAVANCE BIOPHARMA R&D IP, LLC, priority 2019, dated 2023).

What was measured:
[1] = molecular target: JAK1 (Homo sapiens (Human), UniProt P23458); test: Biochemical JAK1 kinase assay (LanthaScreen)
In short: (§1)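 GST-JAK + GFP-STAT1 peptide, HEPES pH 7.5/MgCl2/EGTA/Brij-35 buffer; cpd preincubation 1 h RT; ATP start, 1 h RT; stop with 10 mM EDTA + 2 nM Tb-anti-pSTAT1; TR-FRET 520/495. 4-parameter IC50 → pKi (Cheng-Prusoff).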

[2] = molecular target: JAK2 (Homo sapiens (Human), UniProt O60674); test: Biochemical JAK2 kinase assay (LanthaScreen)
In short: as §1

[3] = molecular target: JAK3 (Homo sapiens (Human), UniProt P52333); test: Biochemical JAK3 kinase assay (LanthaScreen); settings: for JAK3 (pKi)-JAK1 (pKi): selectivity JAK3 over JAK1, difference of pKi
In short: as §1

[4] = molecular target: Tyk2 (Homo sapiens (Human), UniProt P29597); test: Biochemical Tyk2 kinase assay (LanthaScreen)
In short: as §1

[5] = test system: IL-2 stimulated STAT5 phosphorylation in Tall-1 human T cell line (JAK3); test: Cellular JAK3 potency assay: inhibition of IL-2 stimulated pSTAT5 in Tall-1 T cells; type: cell-based; settings: IL-2 stimulated pSTAT5, Tall-1 T cells
In short: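 AlphaLISA SureFire Ultra measures STAT5 Tyr694/699 phosphorylation in lysed Tall-1 human T cells. Cells were exposed to compound for 1 h at 37 °C before a 30 min IL-2 challenge (300 ng/ml final). Values are pIC50 means with standard deviation from signal-versus-concentration curves.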

[6] = test system: Caco-2 cell monolayers; test: Caco-2 permeation assay; type: in vitro ADME; settings: 5 μM, A-B direction, with Verapamil (25 μM)
In short: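 Passive A-to-B permeability with P-gp inhibited by verapamil (25 μM); compound at 5 μM, n=2. Both compartments sampled at t0 and t120 and quantified by LC-MS/MS, giving apparent permeability in cm/sec from flux, area and concentration.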

JAK1, sequence (P23458 whole entry): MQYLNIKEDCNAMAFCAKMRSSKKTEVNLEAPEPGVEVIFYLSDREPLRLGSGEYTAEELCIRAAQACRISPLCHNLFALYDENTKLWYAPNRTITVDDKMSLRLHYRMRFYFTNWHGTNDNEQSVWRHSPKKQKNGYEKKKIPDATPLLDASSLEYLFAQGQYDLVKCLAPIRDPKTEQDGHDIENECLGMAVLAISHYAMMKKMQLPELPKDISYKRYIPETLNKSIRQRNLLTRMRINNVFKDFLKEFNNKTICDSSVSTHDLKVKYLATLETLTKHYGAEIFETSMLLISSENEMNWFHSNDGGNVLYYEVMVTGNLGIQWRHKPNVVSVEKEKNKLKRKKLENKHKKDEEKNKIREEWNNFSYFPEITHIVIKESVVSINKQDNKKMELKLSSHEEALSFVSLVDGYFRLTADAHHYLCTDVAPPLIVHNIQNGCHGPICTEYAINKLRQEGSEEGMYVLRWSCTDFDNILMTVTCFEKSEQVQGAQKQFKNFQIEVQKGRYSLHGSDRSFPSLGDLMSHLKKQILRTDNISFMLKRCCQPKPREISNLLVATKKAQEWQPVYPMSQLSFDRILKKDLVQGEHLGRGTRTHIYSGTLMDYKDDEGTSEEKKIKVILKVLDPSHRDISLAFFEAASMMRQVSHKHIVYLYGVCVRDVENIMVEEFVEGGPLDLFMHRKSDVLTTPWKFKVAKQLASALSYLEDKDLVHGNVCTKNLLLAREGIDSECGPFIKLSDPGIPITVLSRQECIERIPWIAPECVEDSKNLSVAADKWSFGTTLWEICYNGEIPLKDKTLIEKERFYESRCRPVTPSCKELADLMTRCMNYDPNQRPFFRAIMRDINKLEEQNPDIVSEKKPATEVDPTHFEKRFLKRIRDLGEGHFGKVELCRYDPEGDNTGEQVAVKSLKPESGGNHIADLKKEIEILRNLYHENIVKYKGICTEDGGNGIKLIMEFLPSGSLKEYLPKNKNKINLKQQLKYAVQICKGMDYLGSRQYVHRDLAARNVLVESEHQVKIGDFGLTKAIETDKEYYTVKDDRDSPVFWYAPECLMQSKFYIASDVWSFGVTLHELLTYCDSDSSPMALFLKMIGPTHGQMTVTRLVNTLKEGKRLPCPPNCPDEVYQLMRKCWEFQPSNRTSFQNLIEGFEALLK
JAK3, sequence (P52333 whole entry): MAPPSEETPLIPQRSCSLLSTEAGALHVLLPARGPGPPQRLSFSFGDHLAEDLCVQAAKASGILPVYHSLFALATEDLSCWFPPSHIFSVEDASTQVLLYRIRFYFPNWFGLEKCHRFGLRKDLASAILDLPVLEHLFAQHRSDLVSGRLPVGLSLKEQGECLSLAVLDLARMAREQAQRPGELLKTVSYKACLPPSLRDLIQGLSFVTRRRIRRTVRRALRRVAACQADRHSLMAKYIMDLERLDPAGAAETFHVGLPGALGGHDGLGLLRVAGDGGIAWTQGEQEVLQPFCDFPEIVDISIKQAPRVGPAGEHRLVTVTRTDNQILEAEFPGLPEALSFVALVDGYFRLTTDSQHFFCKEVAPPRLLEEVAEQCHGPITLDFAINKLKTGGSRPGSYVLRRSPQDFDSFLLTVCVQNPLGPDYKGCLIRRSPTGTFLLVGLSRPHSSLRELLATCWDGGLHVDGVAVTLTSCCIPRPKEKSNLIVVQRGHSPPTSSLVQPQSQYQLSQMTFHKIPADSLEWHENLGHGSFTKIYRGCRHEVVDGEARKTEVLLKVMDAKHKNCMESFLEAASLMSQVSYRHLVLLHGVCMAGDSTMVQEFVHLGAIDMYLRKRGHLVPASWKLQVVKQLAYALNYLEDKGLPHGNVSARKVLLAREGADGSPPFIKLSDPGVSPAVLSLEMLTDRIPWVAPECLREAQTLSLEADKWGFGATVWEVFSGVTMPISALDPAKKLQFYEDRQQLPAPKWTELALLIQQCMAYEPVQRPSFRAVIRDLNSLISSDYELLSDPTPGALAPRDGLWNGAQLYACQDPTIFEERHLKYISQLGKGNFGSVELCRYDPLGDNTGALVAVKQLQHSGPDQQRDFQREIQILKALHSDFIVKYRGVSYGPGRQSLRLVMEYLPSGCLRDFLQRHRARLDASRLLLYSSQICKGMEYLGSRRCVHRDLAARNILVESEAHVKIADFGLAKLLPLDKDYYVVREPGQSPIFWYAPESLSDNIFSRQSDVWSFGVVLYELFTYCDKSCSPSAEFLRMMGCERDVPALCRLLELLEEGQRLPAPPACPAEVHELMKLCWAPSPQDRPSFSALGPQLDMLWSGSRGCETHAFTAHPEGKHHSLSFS
Tyk2, sequence (P29597 whole entry): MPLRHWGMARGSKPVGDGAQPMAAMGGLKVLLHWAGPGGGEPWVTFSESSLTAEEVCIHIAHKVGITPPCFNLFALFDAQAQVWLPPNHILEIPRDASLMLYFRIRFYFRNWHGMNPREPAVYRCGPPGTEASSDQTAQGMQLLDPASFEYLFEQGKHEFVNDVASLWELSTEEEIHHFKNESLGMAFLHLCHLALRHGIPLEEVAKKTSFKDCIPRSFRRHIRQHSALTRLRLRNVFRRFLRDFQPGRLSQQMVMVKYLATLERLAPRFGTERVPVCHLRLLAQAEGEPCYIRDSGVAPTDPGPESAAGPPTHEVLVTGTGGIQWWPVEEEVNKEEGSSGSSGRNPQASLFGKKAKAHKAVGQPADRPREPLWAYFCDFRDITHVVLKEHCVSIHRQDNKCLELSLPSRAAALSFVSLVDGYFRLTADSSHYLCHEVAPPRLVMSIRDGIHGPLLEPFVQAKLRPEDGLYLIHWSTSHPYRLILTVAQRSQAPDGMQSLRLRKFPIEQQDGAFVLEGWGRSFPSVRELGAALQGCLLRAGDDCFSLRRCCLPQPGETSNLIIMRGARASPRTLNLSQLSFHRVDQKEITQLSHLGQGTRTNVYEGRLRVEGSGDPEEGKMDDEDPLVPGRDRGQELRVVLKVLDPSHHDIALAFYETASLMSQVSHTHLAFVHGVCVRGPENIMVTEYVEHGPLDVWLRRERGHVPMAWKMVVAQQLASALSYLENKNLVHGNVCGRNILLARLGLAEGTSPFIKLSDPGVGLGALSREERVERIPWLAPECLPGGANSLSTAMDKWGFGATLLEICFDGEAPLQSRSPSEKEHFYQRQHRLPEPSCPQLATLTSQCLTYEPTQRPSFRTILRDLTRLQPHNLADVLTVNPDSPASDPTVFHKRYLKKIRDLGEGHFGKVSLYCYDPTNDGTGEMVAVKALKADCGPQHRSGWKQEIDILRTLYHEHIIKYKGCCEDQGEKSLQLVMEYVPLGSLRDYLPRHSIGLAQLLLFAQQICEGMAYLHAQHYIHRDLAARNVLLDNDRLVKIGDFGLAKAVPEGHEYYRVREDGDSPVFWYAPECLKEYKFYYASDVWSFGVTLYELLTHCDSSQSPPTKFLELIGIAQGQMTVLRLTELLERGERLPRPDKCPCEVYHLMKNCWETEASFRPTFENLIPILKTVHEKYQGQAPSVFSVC
JAK2, sequence (O60674 whole entry): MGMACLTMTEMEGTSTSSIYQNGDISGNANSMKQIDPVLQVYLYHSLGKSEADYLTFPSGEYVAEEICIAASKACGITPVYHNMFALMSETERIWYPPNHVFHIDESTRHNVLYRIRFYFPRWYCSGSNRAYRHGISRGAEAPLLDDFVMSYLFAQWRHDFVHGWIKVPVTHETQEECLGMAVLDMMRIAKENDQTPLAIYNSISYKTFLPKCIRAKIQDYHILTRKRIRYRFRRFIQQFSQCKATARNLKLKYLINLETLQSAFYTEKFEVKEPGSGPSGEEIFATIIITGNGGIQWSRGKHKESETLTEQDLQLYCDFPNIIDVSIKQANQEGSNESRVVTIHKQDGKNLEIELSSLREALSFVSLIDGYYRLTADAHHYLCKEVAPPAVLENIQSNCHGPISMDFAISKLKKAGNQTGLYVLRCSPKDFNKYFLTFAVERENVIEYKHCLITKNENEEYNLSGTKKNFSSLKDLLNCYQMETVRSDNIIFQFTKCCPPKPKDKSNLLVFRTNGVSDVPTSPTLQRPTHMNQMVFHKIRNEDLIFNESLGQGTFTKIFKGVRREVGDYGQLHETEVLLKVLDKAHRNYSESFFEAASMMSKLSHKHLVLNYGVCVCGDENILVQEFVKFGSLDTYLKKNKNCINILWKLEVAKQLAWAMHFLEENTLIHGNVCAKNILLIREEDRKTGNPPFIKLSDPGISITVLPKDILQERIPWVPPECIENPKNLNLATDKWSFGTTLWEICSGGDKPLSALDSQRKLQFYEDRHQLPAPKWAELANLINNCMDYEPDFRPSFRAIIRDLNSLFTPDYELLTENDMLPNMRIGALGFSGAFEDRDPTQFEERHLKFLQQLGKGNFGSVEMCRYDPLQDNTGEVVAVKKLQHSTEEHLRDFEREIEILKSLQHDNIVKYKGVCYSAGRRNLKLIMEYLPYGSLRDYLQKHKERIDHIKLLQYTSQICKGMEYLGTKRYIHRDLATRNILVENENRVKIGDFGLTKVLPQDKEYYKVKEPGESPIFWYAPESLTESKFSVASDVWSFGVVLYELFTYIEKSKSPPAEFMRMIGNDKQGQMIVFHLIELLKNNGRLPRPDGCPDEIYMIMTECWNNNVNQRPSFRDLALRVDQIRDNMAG

| Compound | JAK 1 (pKi) [1] | JAK 2 (pKi) [2] | JAK 3 (pKi) [3] | JAK3 (pKi)-JAK1 (pKi) [3] | Tyk 2 (pKi) [4] | Tall-1 (pIC50) [5] | Caco Kp [6] |
| --- | --- | --- | --- | --- | --- | --- | --- |
| C=CC(=O)N1CC(CCn2c(=O)ccc3cnc(Nc4ccc(N5CCN(C(C)=O)C(C)(C)C5)cc4)nc32)C1 [Example 179] | E (E represents a pKi value of 7 or below (Ki of 100 nM or above)) | E (E represents a pKi value of 7 or below (Ki of 100 nM or above)) | A (A represents a pKi value≥10 (Ki≤0.1 nM)) | A (A represents a value of 3 or above) | E (E represents a pKi value of 7 or below (Ki of 100 nM or above)) | B (B represents a pC50 value between 6.7 (included) and 7.5 (IC50 between 200 nM and 32 nM)) | C (C represents a value between 10×10^−6 and 30×10^−6 cm/sec) |
| C=CC(=O)N1CC(CC)(CCn2c(=O)ccc3cnc(Nc4ccc(N5CCN(C(C)=O)CC5)cc4)nc32)C1 [Example 180] | E (E represents a pKi value of 7 or below (Ki of 100 nM or above)) | E (E represents a pKi value of 7 or below (Ki of 100 nM or above)) | B (B represents pKi value between 9 and 10 (Ki between 1 nM and 0.1 nM)) | A (A represents a value of 3 or above) | E (E represents a pKi value of 7 or below (Ki of 100 nM or above)) | B (B represents a pC50 value between 6.7 (included) and 7.5 (IC50 between 200 nM and 32 nM)) | A (A represents a value below 5×10^−6 cm/sec) |
| C=CC(=O)N1CCN(CCn2c(=O)ccc3cnc(Nc4ccc(N5CCN(C(C)=O)CC5)cc4)nc32)[C@@H](CC)C1 [Example 185] | E (E represents a pKi value of 7 or below (Ki of 100 nM or above)) | E (E represents a pKi value of 7 or below (Ki of 100 nM or above)) | A (A represents a pKi value≥10 (Ki≤0.1 nM)) | A (A represents a value of 3 or above) | E (E represents a pKi value of 7 or below (Ki of 100 nM or above)) | B (B represents a pC50 value between 6.7 (included) and 7.5 (IC50 between 200 nM and 32 nM)) | B (B represents a value between 5×10^−6 and 10×10^−6 cm/sec) |
| C=CC(=O)N1CCN(CCn2c(=O)ccc3cnc(Nc4ccc(N5CCN(C(=O)COC)CC5)cc4)nc32)[C@@H](CC)C1 [Example 186] | E (E represents a pKi value of 7 or below (Ki of 100 nM or above)) | E (E represents a pKi value of 7 or below (Ki of 100 nM or above)) | B (B represents pKi value between 9 and 10 (Ki between 1 nM and 0.1 nM)) | A (A represents a value of 3 or above) | E (E represents a pKi value of 7 or below (Ki of 100 nM or above)) | B (B represents a pC50 value between 6.7 (included) and 7.5 (IC50 between 200 nM and 32 nM)) | A (A represents a value below 5×10^−6 cm/sec) |
| C=CC(=O)N1CCN(CCn2c(=O)ccc3cnc(Nc4ccc(N5CCN(C(=O)N(C)C)CC5)cc4)nc32)[C@@H](CC)C1 [Example 187] | E (E represents a pKi value of 7 or below (Ki of 100 nM or above)) | E (E represents a pKi value of 7 or below (Ki of 100 nM or above)) | B (B represents pKi value between 9 and 10 (Ki between 1 nM and 0.1 nM)) | A (A represents a value of 3 or above) | E (E represents a pKi value of 7 or below (Ki of 100 nM or above)) | B (B represents a pC50 value between 6.7 (included) and 7.5 (IC50 between 200 nM and 32 nM)) | C (C represents a value between 10×10^−6 and 30×10^−6 cm/sec) |
| C=CC(=O)N1CCN(CCn2c(=O)ccc3cnc(Nc4ccc(N5CCN(C(=O)CSC)CC5)cc4)nc32)[C@@H](CC)C1 [Example 188] | E (E represents a pKi value of 7 or below (Ki of 100 nM or above)) | E (E represents a pKi value of 7 or below (Ki of 100 nM or above)) | B (B represents pKi value between 9 and 10 (Ki between 1 nM and 0.1 nM)) | A (A represents a value of 3 or above) | E (E represents a pKi value of 7 or below (Ki of 100 nM or above)) | B (B represents a pC50 value between 6.7 (included) and 7.5 (IC50 between 200 nM and 32 nM)) | C (C represents a value between 10×10^−6 and 30×10^−6 cm/sec) |
| C=CC(=O)N1CCN(CCn2c(=O)ccc3cnc(Nc4ccc(N5CCN(S(C)(=O)=O)CC5)cc4)nc32)[C@@H](CC)C1 [Example 189] | E (E represents a pKi value of 7 or below (Ki of 100 nM or above)) | E (E represents a pKi value of 7 or below (Ki of 100 nM or above)) | A (A represents a pKi value≥10 (Ki≤0.1 nM)) | A (A represents a value of 3 or above) | E (E represents a pKi value of 7 or below (Ki of 100 nM or above)) | B (B represents a pC50 value between 6.7 (included) and 7.5 (IC50 between 200 nM and 32 nM)) | B (B represents a value between 5×10^−6 and 10×10^−6 cm/sec) |
| C=CC(=O)N1CCN(CCn2c(=O)ccc3cnc(Nc4ccc(N5CCN(C(=O)OC)CC5)cc4)nc32)[C@@H](CC)C1 [Example 190] | E (E represents a pKi value of 7 or below (Ki of 100 nM or above)) | E (E represents a pKi value of 7 or below (Ki of 100 nM or above)) | A (A represents a pKi value≥10 (Ki≤0.1 nM)) | A (A represents a value of 3 or above) | E (E represents a pKi value of 7 or below (Ki of 100 nM or above)) | B (B represents a pC50 value between 6.7 (included) and 7.5 (IC50 between 200 nM and 32 nM)) | C (C represents a value between 10×10^−6 and 30×10^−6 cm/sec) |
| C=CC(=O)N1CCN(CCn2c(=O)ccc3cnc(Nc4ccc(N5CCN(S(=O)(=O)CCOC)CC5)cc4)nc32)[C@@H](CC)C1 [Example 191] | E (E represents a pKi value of 7 or below (Ki of 100 nM or above)) | E (E represents a pKi value of 7 or below (Ki of 100 nM or above)) | A (A represents a pKi value≥10 (Ki≤0.1 nM)) | A (A represents a value of 3 or above) | E (E represents a pKi value of 7 or below (Ki of 100 nM or above)) | B (B represents a pC50 value between 6.7 (included) and 7.5 (IC50 between 200 nM and 32 nM)) | B (B represents a value between 5×10^−6 and 10×10^−6 cm/sec) |
